What all share (assay): growth of human tumour cells (NCI), 48 h
Experiment [1] relates to 786-0 renal.
Experiment [2] has as its system CCRF-CEM leukemia.
In experiment [3] the test system is COLO 205 colon.
In experiment [4] the test system is HCT-116 colon.
The subject of experiment [5] is HCT-15 colon.
In experiment [6] the test system is HOP-62 NSCLC.
Experiment [7] relates to HT29 colon.
Experiment [8] relates to NCI-H522 lung.
Experiment [9] concerns OVCAR-3 ovarian.
In experiment [10] the test system is OVCAR-5 ovarian.
Experiment [11] deals with OVCAR-8 ovarian.
In experiment [12] the test system is SF-268 CNS.
Experiment [13] concerns SK-MEL-28 melanoma.
Experiment [14] deals with UACC-62 melanoma.
The test system of experiment [15] is UO-31 renal.
The test system of experiment [16] is RXF 393 renal.
Experiment [17] relates to SR leukemia.

Results on 18 compounds are retold here after PubChem BioAssay (NCI).

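Cultured in 96-well plates, cells were exposed to test compound for 48 hours across five concentrations. TGI denotes the concentration required for complete inhibition of growth.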

Regarding `NC(CCCCNCc1ccccc1O)C(=O)O` (stereo unspecified), the TGI in [1], in experiment [2], in experiment [3], in experiment [4], in experiment [5] and in experiment [6] was more than 100 µM in each case. Further, the TGI in experiment [7], in experiment [8], in experiment [9], in experiment [10], in experiment [11] and in [12] was more than 100 µM each time. The TGI in [13], in experiment [14] and in [15] was more than 100 µM each time.

Turning to `N#CNC1=NC(N)C(c2nc3ccccc3[nH]2)=C(CCCC(=O)Nc2cccc([N+](=O)[O-])c2)N1` (stereo unspecified), the TGI in [1], in experiment [2], in experiment [3], in experiment [5], in [6] and in experiment [7] was more than 100 µM throughout. Further, the TGI in experiment [8], in experiment [9], in [10], in experiment [11], in experiment [16] and in experiment [12] was more than 100 µM throughout. In addition, the TGI in [13], in experiment [14] and in [15] was more than 100 µM each time.

Regarding `CC(C)N(C(=O)C12C3C4C1C1C2C3C41C(=O)N(C(C)C)C(C)C)C(C)C` (stereo unspecified), the TGI in [1], in experiment [2], in experiment [3], in [4], in experiment [5] and in experiment [6] was more than 50 µM in each case. Besides, the TGI in experiment [7], in experiment [8], in [9], in [10], in experiment [11] and in experiment [12] was more than 50 µM each time. The TGI in experiment [13], in [14] and in experiment [15] was more than 50 µM throughout.

As to `COc1cc(-c2cc(=O)c3ccccc3[nH]2)cc(OC)c1OC`, the TGI in experiment [1], in [2], in experiment [3], in [4], in [5] and in experiment [6] was more than 75 µM in each case. The TGI in [7], in [8], in experiment [9], in experiment [11], in experiment [16] and in [12] was more than 75 µM each time. In addition, the TGI in experiment [13], in experiment [17], in [14] and in [15] was more than 75 µM throughout.

Regarding `CC(=O)Nc1ccc(S(=O)(=O)NN(C)S(=O)(=O)c2ccc(C)cc2)cc1`, the TGI in experiment [1], in experiment [2], in experiment [3], in experiment [4], in experiment [6] and in [7] was more than 100 µM each time. For the same compound, the TGI in [8], in experiment [9], in experiment [10], in experiment [11], in experiment [16] and in experiment [12] was more than 100 µM throughout. The TGI in experiment [13], in experiment [17], in experiment [14] and in experiment [15] was more than 100 µM each time.

Turning to `Cc1nnc(N/N=C(/C(=O)C(C#N)c2ccc(Cl)cc2)C(C#N)c2ccc(Cl)cc2)n1N` (stereo unspecified), the TGI in [1] was 31.5 µM; in [2], more than 100 µM; in experiment [3], 32.5 µM; in [5] it was 49.4 µM; in experiment [6], 30.3 µM; in experiment [7], 61.9 µM. Moreover, the TGI in [8] amounted to 32.3 µM; in experiment [9] it was 48.8 µM; in experiment [10], 33.6 µM; in [11] it was 41 µM; in experiment [16], 31.6 µM; in experiment [12] it was 57.2 µM. The TGI in [13] was 33.8 µM; in experiment [15], 34.1 µM.

As for `C/C(N=NS(=O)(=O)c1ccc(C)cc1)=C1\C=CC=CN1O`, the TGI in [1], in experiment [2], in experiment [4], in experiment [5], in experiment [6] and in experiment [7] was more than 100 µM each time. Moreover, the TGI in [8], in [9], in experiment [10], in experiment [11], in experiment [12] and in experiment [13] was more than 100 µM in each case. In addition, the TGI in experiment [17], in [14] and in experiment [15] was more than 100 µM throughout.

As for `Nc1nc2c(ncn2CCCC(c2ccccc2)P(=O)(O)O)c(=O)[nH]1` (stereo unspecified), the TGI in experiment [1], in [2], in [3], in experiment [4], in experiment [5] and in experiment [6] was more than 100 µM each time. For the same compound, the TGI in experiment [7], in experiment [8], in experiment [9], in [10], in [11] and in experiment [12] was more than 100 µM each time. For the same compound, the TGI in experiment [13], in experiment [14] and in experiment [15] was more than 100 µM throughout.

As to `Cn1nc(-c2ccccc2)c(C(=O)/C=C/c2ccc(Cl)cc2)c(N2CCOCC2)c1=O`, the TGI in [1] was 12.3 µM; in experiment [2], 7.1 µM; in experiment [3], 3.79 µM; in experiment [4], 3.96 µM; in experiment [5], 13.4 µM; in experiment [6], 33.7 µM. Besides, the TGI amounted to 15.1 µM in experiment [7]; 9.46 µM in experiment [8]; 26.2 µM in [11]; 6.79 µM in [16]; 11.8 µM in experiment [12]; 7.64 µM in [13]. The TGI came out at 10.7 µM in [14] and 21.7 µM in [15].

Take `O=C(O)C12CC3CC(CC(F)(C3)C1)C2`: the TGI in [1], in experiment [2], in experiment [3], in experiment [4], in [6] and in [7] was more than 100 µM in each case. In addition, the TGI in [8], in [9], in [10], in [11], in [16] and in [13] was more than 100 µM each time. In addition, the TGI in [14] and in experiment [15] was more than 100 µM in each case.

As to `CN(C)C(F)=PC(F)(F)F` (stereo unspecified), the TGI in [1], in experiment [2], in experiment [3], in experiment [4], in [5] and in experiment [6] was more than 100 µM in each case. Further, the TGI in [7], in [8], in [10], in experiment [11], in experiment [16] and in experiment [12] was more than 100 µM throughout. Moreover, the TGI in [13], in experiment [14] and in experiment [15] was more than 100 µM in each case.

In the case of `CCc1ccccc1NC(=O)CC1NC(=O)CS1` (stereo unspecified), the TGI in [1], in [2], in experiment [3], in experiment [4], in [6] and in experiment [8] was more than 100 µM in each case. Also, the TGI in experiment [9], in [10], in [11], in experiment [16], in experiment [12] and in experiment [13] was more than 100 µM in each case. Moreover, the TGI in experiment [14] and in [15] was more than 100 µM in each case.

Consider `Oc1cccnc1/C=N/OCc1ccccc1`, for which the TGI in experiment [1], in experiment [2], in [3], in experiment [4], in [5] and in [6] was more than 100 µM each time. In addition, the TGI was more than 100 µM in experiment [7]; more than 100 µM in [8]; more than 100 µM in experiment [9]; more than 100 µM in [10]; more than 100 µM in experiment [11]; 72.8 µM in [16]. For the same compound, the TGI in experiment [12], in experiment [14] and in [15] was more than 100 µM throughout.

For `O=c1ccn(/C=C/C(O)C(O)CO)c(=O)[nH]1` (stereo unspecified), the TGI in experiment [1], in [2], in experiment [3], in experiment [4], in experiment [5] and in experiment [6] was more than 100 µM each time. Moreover, the TGI in experiment [7], in experiment [8], in experiment [9], in experiment [10], in [11] and in [12] was more than 100 µM throughout. Further, the TGI in experiment [13], in experiment [14] and in experiment [15] was more than 100 µM in each case.

As for `COc1ccc(/C=C/c2cc(OC)c(OCc3ccccc3)c(OC)c2)cc1`, the TGI in experiment [1], in experiment [2], in [3], in [4], in [6] and in [7] was more than 100 µM each time. The TGI is more than 100 µM in experiment [8]; more than 100 µM in experiment [9]; 94.5 µM in experiment [10]; more than 100 µM in experiment [11]; more than 100 µM in experiment [12]; more than 100 µM in experiment [13]. In addition, the TGI in experiment [17], in experiment [14] and in experiment [15] was more than 100 µM throughout.

Regarding `CN(C)CC(/C(Cc1ccccc1)=N\NC(=S)NN)c1ccccc1` (stereo unspecified), the TGI in experiment [1], in [3], in [4], in [5], in experiment [6] and in experiment [7] was more than 100 µM throughout. Moreover, the TGI in [8], in experiment [9], in [10], in experiment [11], in experiment [16] and in [12] was more than 100 µM throughout. Moreover, the TGI in [13], in experiment [17], in experiment [14] and in [15] was more than 100 µM in each case.

For the compound `O=c1ccc2ccccc2c2ccccc12`, the TGI in experiment [1] was 10.1 µM; in experiment [2], 11.4 µM; in [3], 18.3 µM; in experiment [4] it was 11.4 µM; in experiment [5], 5.64 µM; in experiment [6], 11.2 µM. Further, the TGI was 6.78 µM in [7]; 11.2 µM in experiment [8]; 11.5 µM in experiment [9]; 6.7 µM in [10]; 4.61 µM in experiment [11]; 6.19 µM in [12]. The TGI in [13] was found to be 16.8 µM; in experiment [17], 4.66 µM; in [14], 7.12 µM; in experiment [15], 13.8 µM.

On to `CSc1ccc2c(cc1=O)C(NC(=O)c1ccc(C#N)cc1)CCc1cc(O)c(O)c(O)c1-2` (stereo unspecified), for which the TGI was more than 100 µM in experiment [1]; 57.8 µM in experiment [2]; 38.6 µM in [3]; 32.5 µM in experiment [4]; 36.6 µM in [5]; more than 100 µM in [6]. Also, the TGI in experiment [7] was 75.3 µM; in experiment [8] it was 40.3 µM; in experiment [9], more than 100 µM; in experiment [10] it was more than 100 µM; in experiment [11] it was 99.7 µM; in experiment [12], more than 100 µM. The TGI was more than 100 µM in [13], 48.7 µM in [17], 46.3 µM in [14] and more than 100 µM in experiment [15].
